Results as given in patent publication US20240058288A1, “DRUG COCKTAIL FOR TREATMENT OF PARKINSON'S DISEASE, LEWY BODY DISEASE AND MULTIPLE SYSTEM ATROPHY” (ALETA NEUROSCIENCE, LLC, priority 2021, published 2024).
“Also recorded” adds a separate entry of the source. Where two headings read alike, the source gives them in different places.

Columns and labels:
IL-1β = assay: LPS/ATP-induced IL-1β in human microglia cells; format: cell-based; settings: as compared with […] distilled water in presence of LPS and ATP
IL-6 = assay: LPS/ATP-induced IL-6 secretion by human microglia cells (Luminex); format: cell-based; settings: for anti-inflammatory effect on activated microglia, all three cytokines: LPS and ATP, IL-6, TNF-α, GROα together (FIG. 8, 9, 10)
Excerpt: (§1) In addition to the studies discussed above assessing activity of combinations of drugs on MPP+-induced neurodegeneration toxicity on human dopaminergic neurons and measuring neuronal growth and neurite branching, we also assessed combinations of drugs in reducing lipopolysaccharide (LPS, from E. coli)-induced neuroinflammation.
(§2) Lipopolysaccharides are important outer membrane components of gram-negative bacteria such as E. coli and salmonella. They are large amphipathic glycoconjugates that typically consist of a lipid domain (hydrophobic) attached to a core oligosaccharide and a distal polysaccharide. LPS binds to Toll-like receptor 4 (TLR4) and activates microglia (51) which in turn increases secretion of pro-inflammatory cytokines such as interleukin-6 (IL-6), tumor necrosis factor-α (TNF-α), and CXCL1/GROα.
(§3) Microglia cells were obtained from an iCell® Microglia kit, 01279 (Catalogue N° R1131) from FUJIFILM Cellular Dynamics. We followed the manufacturer's protocol for activation of the microglial cells with LPS/ATP to subsequently measure the effect of the study drugs on pro-inflammatory cytokines IL-6, TNF-α and CXCL1/GROα.
(§4) All cell culture procedures were performed in aseptic conditions, under a laminar flow hood. Microglia were thawed and cultured following the provider's instructions. The microglia were plated at 50,000 cells per well of a Corning Primaria 96 well plate (Ref N° 353872) in 100 μL of growth medium. Cells were incubated at 37° C./5% CO2 in a humidified cell culture incubator.
(§5) Three days after cell plating, the test or reference substances (25 μL of solutions at 5×) were applied 1 hour before LPS and ATP stimulation.
(§6) One hour later, 12.5 μL of test or reference substances were added again at 2× concentrated followed by 12.5 μL of LPS at 12× concentration. Fifty microliters of ATP were introduced at 4× concentration, 5 h 30 min after incubation with LPS.
(§7) Six hours after LPS incubation, the supernatant of each well was collected and centrifugated at 1000 g for 10 minutes to remove the cells and debris.
(§8) Fifty microliters of supernatant from NT and LPS+ATP-treated wells were used to determine cytokine secretion (IL-6, TNF-α, CXCL1/GROα) by Luminex platform according to the provider's instructions. Samples were diluted prior to the assay to fit within the standard range if needed. Three wells were tested per each condition (Table 10). Cytokines levels in the supernatant were expressed in pg/mL. The data was analyzed using a One-Way ANOVA followed by Bonferroni test.

TNF-α = assay: LPS/ATP-induced TNF-α secretion by human microglia cells (Luminex); format: cell-based
Excerpt: as §1, §2, §3, §4, §5, §6, §7, §8

CXCL1/GROα = assay: LPS/ATP-induced CXCL1/GROα secretion by human microglia cells (Luminex); format: cell-based
Excerpt: as §1, §2, §3, §4, §5, §6, §7, §8

PrP = settings: cell-free aggregation assays, chronically and acutely infected cell cultures; cited from earlier work
[1] = test system: human dopaminergic neurons (iCell DopaNeurons); assay: MPP+-induced neurotoxicity: cytolysis of iCell DopaNeurons; format: cell-based
Excerpt: (§9) We conducted an in vitro study of the drugs in Table 1 to evaluate the neuroprotective effects of 44 conditions of treatment (Table 2, experiments 1-41; 51-53) against MPP+-induced neurodegeneration toxicity on human dopaminergic neurons (iCell® DopaNeurons: iPS cell-derived human midbrain floorplate dopaminergic neurons). Further combinations (Table 2, experiments 42-50 and Table 3) are also disclosed.
(§10) Three different measurements were made in the experiments. 1. Neurite length in mm is a measure of increase in dendrite length of neurons. […] 2. neurite branching is measure of dendrite branching. […] 3. Cytolysis of the cells is a measure of cell death. […] Experimental conditions were measured relative to the results of healthy cells in the studies.
(§11) Procedure. iCell DOPA neurons were thawed and cultured following the provider's instructions in Brainphys medium+provided supplements+1% N2 supplement (Stemcell Technologies)+penicillin/streptomycin+Laminin. They were plated at 20000 cells per well of a 384 well plate (pre-coated with poly-D-lysine and Laminin) in 70 μL of growth medium. Cells were incubated at 37° C./5% CO2 in a humidified cell culture incubator. Half of the culture medium was changed twice a week.
(§12) MPP+-induced neurotoxicity: 24 hours after neuronal plating, half of the medium was removed and the test compounds were applied with MPP+ treatment, both concentrated at 4×, were added to the wells. For each condition, six aliquots were added, corresponding to columns A-F in Table 2. Except for the NT/NT row, in each row, either the compound indicated dissolved in its vehicle noted in Table 1 was added, or only a vehicle was added as indicated. Column F is an indicator of whether MPP+ was added. If not, only the medium was added.
(§13) For the evaluation of conditions 1-28, Neurite outgrowth was followed for subsequent 48 hours using an Incucyte Zoom platform with one phase contrast image every 4 hours, using a 20× objective. After 48 hours, the medium containing test compounds and MPP+ was removed and replaced by fresh medium containing a fluorescent cytolysis marker (red fluorescence) and a live cell marker (green fluorescence). For the evaluation of conditions 29-53, Neurite outgrowth was followed similarly for subsequent 72 hours after MPP+ was added.
Data was normalized to control conditions as there is basal cytolysis in the cell culture after thawing.
Fluorescently immuno-stained cells were imaged on a high content imaging platform. Individual segmentation of cells was performed by image analysis of the MAP2 and NeuN staining. The number of neurons and the neurite length were measured. The percentage of cytolyzed cells was also calculated.
(§14) Statistical analysis. We used one-way ANOVA followed by Bonferroni's multiple comparisons test.

[2] = pre-treatment 50 mg/kg for 3 days; cited from earlier work
[3] = test system: human dopaminergic neurons (iCell DopaNeurons); assay: MPP+-induced neurotoxicity: neurite outgrowth (neurite length, branch points) of iCell DopaNeurons, Incucyte; format: cell-based
Excerpt: as §9
iCell DOPA neurons are neural floor plate-derived midbrain dopaminergic neurons generated from human induced pluripotent stem cells (iPSCs). Dopaminergic neurons, specifically those located in the floor plate-derived midbrain are implicated in neurological disorders such as Parkinson's disease, MSA and DLBD among others. Thus iCell DopaNeurons provide a highly relevant in vitro model to investigate these types of pathologies (42, 43). The iCellDopa neurons were supplied from FUJIFILM Cellular Dynamics.
as §10, §11, §12, §13
Each condition 1-41 and 51-53 was repeated in 8 wells of a 384 well plate, that is, each test condition studied in Table 2 was repeated eight times. NT/NT were cells in the standard medium only. Control/NT are the cells in the vehicle (as described above), with and without MPP+.
Assay endpoints and data analysis. Phase contrast images were analyzed at each time point to determine the neurite length and number of branch points per mm^2. Kinetic data was plotted and kinetics were normalized by subtracting the value of the first data point (at time of treatment), allowing to measure changes in neurite outgrowth only from the onset of the treatment, starting at zero. Area Under Curve (AUC) of kinetic data was obtained and used for plotting compound's effects and perform statistical analyzes.
as §14

[4] = chronic PD and DLBD mouse models; cited from earlier work
[5] = as compared with […] distilled water in presence of LPS and ATP
[6] = MPP+ 100 μM, Table 8.1 (FIG. 6C), PCI 30 μM
[7] = MPP+ 100 μM, Table 6.1 (FIG. 6A), followed 72 hours, PCI 30 μM
[8] = MPP+ 100 μM, Table 7.1 (FIG. 6B), followed 72 hours, PCI 30 μM
[9] = LPS 100 ng/mL + ATP 5 mM, 6 h after LPS, TAK-242 2 μM, MCC950 10 μM
[10] = LPS 100 ng/mL + ATP 5 mM, 6 h after LPS, three wells, TAK-242 2 μM, MCC950 10 μM

For `CCOC(=O)C1=CCCC[C@H]1S(=O)(=O)Nc1ccc(F)cc1Cl` [TAK-242], the “concentration of IL-1β” value (IL-1β) was “significantly decreased”, the “concentration of IL-6” value (IL-6; [5]) was “significantly decreased” and the “concentration of TNF-α” value (TNF-α; [5]) was “significantly decreased”. For the same compound, the “concentration of GROα” value (CXCL1/GROα; [5]) was “significantly decreased”.
For `C[C@H](CCC(=O)NCCS(=O)(=O)O)[C@H]1CC[C@H]2[C@@H]3[C@@H](O)C[C@@H]4C[C@H](O)CC[C@]4(C)[C@H]3CC[C@]12C` [TUDCA, tauroursodeoxycholic acid], the PrP conversion (PrP) is given as “substantially reduced PrP conversion”, the “Cytolysis, %, Plate 1, Mean ± S.D.” value [1, 6] is given as 70.69 ± 2.02% and the “anti-inflammatory effect on activated microglia, all three cytokines” value (IL-6) is given as “Anti-inflammatory effects of the individual drugs were observed”. The “neurodegeneration of the nigral dopaminergic neurons caused by MPTP” value [2] was “significantly reduced neurodegeneration”, the “Neurite length data, plate 1, Mean” value [3, 7] was 1825.9 mm/mm^2 and the “Neurite Branching Data, Plate 1, Mean ± S.D.” value (from here on “Neurite Branching Data”) [3, 8] was 58836.3 ± 9596.4 per mm^2. For the same compound, the “neurite length increased as compared with MPP+ alone” value ([3]; MPP+ 100 μM, conditions 29-53, followed 72 hours (FIG. 6A, 7A)) was 43% and the “number of branches increased as compared with MPP+ alone” value ([3]; MPP+ 100 μM, conditions 29-53, followed 72 hours (FIG. 6B, 7B)) was 60%.
With `COc1cc2nc(N3CCN(C(=O)C4CCCO4)CC3)nc(N)c2cc1OC` (stereo not shown) [TZ, Terazosin] the “Cytolysis, %, Plate 1, Mean ± S.D.” value [1, 6] was 72.78 ± 2.29%, the “Neurite length data, plate 1, Mean” value [3, 7] was 1102.2 mm/mm^2 and the “Neurite Branching Data” value [3, 8] was 31244.4 ± 12478.9 per mm^2. The “effects on neurite outgrowth” value ([3]; MPP+ 100 μM, vs MPP+ alone) was “no significant effects”.
With Sodium Phenylbutyrate [PBA] the “Cytolysis, %, Plate 1, Mean ± S.D.” value [1] was 72.06 ± 1.77%, the “IL-6 in supernatant, Replicate 1” value (IL-6; [9]) was 396.23 pg/mL and the “IL-6 in supernatant, Replicate 2” value (IL-6; [9]) was 363.94 pg/mL. For the same compound, the “IL-6 in supernatant, Replicate 3” value (IL-6; [9]) was 305.53 pg/mL, the “IL-6 in supernatant, Mean ± S.D.” value (IL-6; [10]) was 355.23 ± 45.97 pg/mL and the “anti-inflammatory effect on activated microglia, all three cytokines” value (IL-6) was “Anti-inflammatory effects of the individual drugs were observed”. For the same compound, the “decrease of IL-6 concentration” value (IL-6; [5]) was 49%, the “TNF-α in supernatant, Replicate 1” value (TNF-α; [9]) was 32.67 pg/mL and the “TNF-α in supernatant, Replicate 2” value (TNF-α; [9]) was 35.47 pg/mL. For the same compound, the “TNF-α in supernatant, Replicate 3” value (TNF-α; [9]) was 32.24 pg/mL, the “TNF-α in supernatant, Mean ± S.D.” value (TNF-α; [10]) was 33.46 ± 1.75 pg/mL and the “decrease of TNF-α concentration” value (TNF-α; [5]) was 44%. For the same compound, the “CXCL1/GROα in supernatant, Replicate 1” value (CXCL1/GROα; [9]) was 627.29 pg/mL, the “CXCL1/GROα in supernatant, Replicate 2” value (CXCL1/GROα; [9]) was 383.60 pg/mL and the “CXCL1/GROα in supernatant, Replicate 3” value (CXCL1/GROα; [9]) was 476.49 pg/mL. For the same compound, the “CXCL1/GROα in supernatant, Mean ± S.D.” value (CXCL1/GROα; [10]) was 495.79 ± 122.99 pg/mL, the “Neurite Branching Data” value [3] was 46742.8 ± 7107.5 per mm^2 and the “Neurite length - Baseline-corrected AUC (0-72 h), Mean” value [3] was 853.7 mm/mm^2. The “Neurite length data, plate 1, Mean” value [3] was 1681.1 mm/mm^2, the “Number of branch points per mm^2 - Baseline-corrected AUC (0-72 h), Mean” value [3] was 41712.8 per mm^2 and the “number of branches as compared with MPP+ alone” value [3] was “significantly increased”. The “number of branches increased as compared with MPP+ alone (control/MPP+)” value [3] was 89%, the “protective effect against MPP+” value [3] was “showed the protective effect, but to a substantially lesser effect than when combined; also recorded: showed protective effect, but it was not statistically significant” and the disease progression [4] was “halted the disease progression”.
